Assay: method code SF-HPLC, from DOI: 10.1016/0378-5173(94)00315-v
Conditions: pH 1.0

| logD | Compound |
| --- | --- |
| 2.82 | COc1ccc2cc(CC(=O)O)ccc2c1 |

Same assay, conditions: pH 7.4

| Compound | logD |
| --- | --- |
| CCC(C)NC(=O)COC(=O)Cc1ccc2cc(OC)ccc2c1 (centres undefined) | 3.31 |
| COc1ccc2cc(CC(=O)OCC(=O)N(CCO)CCO)ccc2c1 | 1.41 |
| COc1ccc2cc(CC(=O)OCC(=O)N3CCCC3)ccc2c1 | 2.71 |
| CCN(CCO)C(=O)COC(=O)Cc1ccc2cc(OC)ccc2c1 | 1.98 |
| CCCN(CCC)C(=O)COC(=O)Cc1ccc2cc(OC)ccc2c1 | 4.04 |
| C=CCN(CC=C)C(=O)COC(=O)Cc1ccc2cc(OC)ccc2c1 | 3.67 |
| COc1ccc2cc(CC(=O)OCC(=O)N3CCOCC3)ccc2c1 | 2.13 |
| COc1ccc2cc(CC(=O)OCC(=O)NC3CCCCC3)ccc2c1 | 3.99 |
| CCCCNC(=O)COC(=O)Cc1ccc2cc(OC)ccc2c1 | 3.57 |

Results, then the molecule that gave them:

| logD | Compound |
| --- | --- |
| 3.1 | CCCNC(=O)COC(=O)Cc1ccc2cc(OC)ccc2c1 |
| 3.6 | COc1ccc2cc(CC(=O)OCC(=O)NC(C)(C)C)ccc2c1 |
| 2.65 | CCNC(=O)COC(=O)Cc1ccc2cc(OC)ccc2c1 |
| 2.89 | COc1ccc2cc(CC(=O)OCC(=O)NC(C)C)ccc2c1 |
| 2.23 | COc1ccc2cc(CC(=O)OCC(=O)N(C)C)ccc2c1 |
| 1.58 | COc1ccc2cc(CC(=O)OCC(=O)N(C)CCO)ccc2c1 |
| 3.05 | CCN(CC)C(=O)COC(=O)Cc1ccc2cc(OC)ccc2c1 |
| 1.88 | COc1ccc2cc(CC(=O)OCC(N)=O)ccc2c1 |
| 2.19 | CNC(=O)COC(=O)Cc1ccc2cc(OC)ccc2c1 |
